Assay results: patent US7863279B2, “Triazolopyridine carboxamide derivatives and triazolopyrimidine carboxamide derivatives, preparation thereof and therapeutic use thereof” (sanofi-aventis, priority 2007, dated 2011)
pIC50: −log10 of the molar value.

Tests used:
[1] = biological target: T1, FAAH (Fatty Acid Amide Hydrolase) enzyme (Mus musculus, UniProt O08914); assay: Radioenzymatic assay of [3H] anandamide hydrolysis by FAAH; format: biochemical; details: mouse brain homogenate; 20 min preincubation; 10 μM anandamide, 20 min at ambient temperature; read-out: IC50 (concentration inhibiting 50% of the control enzyme activity of FAAH)
T1 construct: the source of FAAH enzyme is a homogenate of mouse brain from which the cerebellum and the medulla oblongata have been removed; from tissue; host or cells: mouse brain homogenate (cerebellum and medulla oblongata removed)
T1 sequence (O08914 1-579): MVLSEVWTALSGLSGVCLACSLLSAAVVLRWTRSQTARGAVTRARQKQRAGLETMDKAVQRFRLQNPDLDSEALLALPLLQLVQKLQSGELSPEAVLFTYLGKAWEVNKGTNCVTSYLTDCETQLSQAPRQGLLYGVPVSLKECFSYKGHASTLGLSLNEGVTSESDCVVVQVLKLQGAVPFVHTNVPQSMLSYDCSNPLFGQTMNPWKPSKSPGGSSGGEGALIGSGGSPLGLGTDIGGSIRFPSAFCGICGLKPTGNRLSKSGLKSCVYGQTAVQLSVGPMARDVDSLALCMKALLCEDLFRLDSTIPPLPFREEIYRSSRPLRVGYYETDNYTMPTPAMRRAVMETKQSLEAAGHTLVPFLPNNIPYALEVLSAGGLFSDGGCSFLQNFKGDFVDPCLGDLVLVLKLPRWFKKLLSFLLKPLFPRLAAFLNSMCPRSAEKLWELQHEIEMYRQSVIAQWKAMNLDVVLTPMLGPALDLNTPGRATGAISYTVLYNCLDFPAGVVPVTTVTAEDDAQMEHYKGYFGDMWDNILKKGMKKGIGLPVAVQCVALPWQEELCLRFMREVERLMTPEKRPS
Procedure: Tests comprised measuring the activity, in vitro, of the compounds of the invention on the FAAH enzyme.
The inhibitory activity was measured in a radioenzymatic assay based on measuring the product of hydrolysis (ethanolamine [1-3H]) of anandamide by FAAH (Life Science (1995), 56, 1999-2005 and Journal of Pharmacology and Experimented Therapeutics (1997), 283, 729-734). The products of hydrolysis of [^3H] anandamide, labeled on ethanolamine, are arachidonic acid and [^3H]ethanolamine, and the source of FAAH enzyme is a homogenate of mouse brain from which the cerebellum and the medulla oblongata have been removed. The mouse brains are removed, and stored at −80° C. until they are used, or homogenized immediately for twice 5 seconds using a Precellys apparatus at 5000 rpm (Bertin) in a 10 mM Tris-HCl, 150 mM NaCl, 1 mM EDTA buffer (pH 8) at 4° C. The concentration of the homogenates is then adjusted to 20 μg/μl.
(§1) The dilution series of the compounds is prepared from stock solutions at 20 mM in 100% DMSO. […]
(§2) Assaying of the FAAH activity is carried out in a 96-well microplate in a final reaction volume of 70 μl. […] After stirring for 10 minutes, the microplate is centrifuged for 15 minutes at 4000 g and a 30 μl aliquot of the aqueous phase containing the [^3H]ethanolamine produced is removed and then counted for 5 minutes by liquid scintillation (Wallac 1450 Microbeta).

[2] = biological target: T2, MGL (monoacyl glycerol lipase) enzyme (Mus musculus, UniProt O35678); assay: Radioenzymatic assay of [3H] 2-oleoyl glycerol hydrolysis by MGL; format: biochemical; details: mouse brain homogenate; 20 min preincubation; 50 μM 2-OG, 20 min at ambient temperature; read-out: IC50 (concentration inhibiting 50% of the control enzyme activity of MGL)
T2 construct: the source of MGL enzyme is a homogenate of mouse brain from which the cerebellum and the medulla oblongata have been removed; from tissue; host or cells: mouse brain homogenate (cerebellum and medulla oblongata removed)
T2 sequence (O35678 1-303): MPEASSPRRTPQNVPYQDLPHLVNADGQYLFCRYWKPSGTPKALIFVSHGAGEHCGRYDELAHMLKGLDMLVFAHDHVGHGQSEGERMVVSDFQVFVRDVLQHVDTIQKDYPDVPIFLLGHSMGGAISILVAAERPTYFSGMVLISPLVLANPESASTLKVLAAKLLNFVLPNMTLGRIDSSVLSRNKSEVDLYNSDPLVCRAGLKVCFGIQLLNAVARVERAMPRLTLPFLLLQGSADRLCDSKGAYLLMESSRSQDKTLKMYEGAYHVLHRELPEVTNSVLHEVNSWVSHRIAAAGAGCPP
Procedure: Tests comprised measuring the activity, in vitro, of the compounds of the invention on the MGL enzyme.
The inhibitory activity was measured in a radioenzymatic assay based on measuring the product of hydrolysis of 2-oleoyl glycerol ([^3H] 2-OG) by MGL. The products of hydrolysis of [^3H] 2-OG, labeled on the glycerol, are oleic acid and [^3H] glycerol, and the source of MGL enzyme is a homogenate of mouse brain from which the cerebellum and the medulla oblongata have been removed. The mouse brains are removed, and stored at −80° C. until they are used, or homogenized immediately for twice 5 seconds using a Precellys apparatus at 5000 rpm (Bertin) in a 10 mM Tris-HCl, 150 mM NaCl, 1 mM EDTA buffer (pH 8) at 4° C. The concentration of the homogenates is then adjusted to 7.5 μg/μl.
as §1
as §2, with “MGL” for “FAAH”, “100” for “70”, “[^3H] glycerol” for “[^3H]ethanolamine”, “Microbeta). […]” for “Microbeta).”

Compound: O=C(N1CCN(c2cccc(C(F)(F)F)c2)CC1)n1nnc2ccc(-c3ccoc3)nc21 [compound 4, (5-furan-3-yl[1,2,3]triazolo[4,5-b]pyridin-3-yl)[4-(3-trifluoromethylphenyl)piperazin-1-yl]methanone]
- melting point: 68 to 70 °C

Compound: O=C(N1CCN(c2cccc(C(F)(F)F)c2)CC1)n1nnc2ccc(-c3ccc(Cl)cc3)nc21 [Compound No. 3, [5-(4-chlorophenyl)[1,2,3]triazolo[4,5-b]pyridin-3-yl][4-(3-trifluoromethylphenyl)piperazin-1-yl]methanone]
- melting point: 139 to 141 °C
- pIC50 [1]: 8.70
- pIC50 [2]: 8.70

Compound: O=C(N1CCN(c2cccc(C(F)(F)F)c2)CC1)n1nnc2ccc(-c3ccccc3Cl)nc21 [compound 1, [5-(2-chlorophenyl)[1,2,3]triazolo[4,5-b]pyridin-3-yl][4-(3-trifluoromethylphenyl)piperazin-1-yl]methanone]
- melting point: 69 to 71 °C

Compound: O=C(N1CCN(c2cccc(C(F)(F)F)c2)CC1)n1nnc2ccc(-c3ccsc3)nc21 [compound 5, (5-thiophen-3-yl[1,2,3]triazolo[4,5-b]pyridin-3-yl)[4-(3-trifluoromethylphenyl)piperazin-1-yl]methanone]
- melting point: 93 to 95 °C

Compound: O=C(N1CCN(c2cccc(C(F)(F)F)c2)CC1)n1nnc2ccc(-c3cccc(Cl)c3)nc21 [compound 2, [5-(3-chlorophenyl)[1,2,3]triazolo[4,5-b]pyridin-3-yl][4-(3-trifluoromethylphenyl)piperazin-1-yl]methanone]
- melting point: 102 to 104 °C

Compound: O=C(N1CCN(c2cccc(C(F)(F)F)c2)CC1)n1nnc2ccc(-c3ccc4ccccc4c3)nc21 [compound 6, (5-naphthalen-2-yl[1,2,3]triazolo[4,5-b]pyridin-3-yl)[4-(3-trifluoromethylphenyl)piperazin-1-yl]methanone]
- melting point: 90 to 92 °C
